Patent US9688722B2, “Substrates and inhibitors of prolyl oligopeptidase and methods of use” (The Board of Regents of the University of Oklahoma, priority 2012, dated 2017)
Values joined by “and” are separate entries in the source; they are usually repeats but may differ in a detail not shown here. Equal values may be shown once.

Columns and labels:
Aqueous solubility = format: physicochemical; details: result in words
Procedure: The specific POP inhibitor, J94 (acetyl-Lys-Leu-Arg-(L)boroPro (Ki<100 nM)); and the substrate, C95 (acetyl-Arg-AEEA-Gly-Pro-AMC), were designed, synthesized and characterized by us as previously reported. […] The inhibitors (J94 and M83) were dissolved in Hanks Balanced Salt Solution (HBSS; Gibco) at 1 mM and stored at −20° C. The substrate (C95) was dissolved in HBSS at 2.5 mM and stored at 4° C. […] Tic-Pro-AFC, a prolyl-specific fluorescent substrate, was supplied by Vantia (Southampton, England).

POP = biological target: T1, POP (Homo sapiens, UniProt P48147); experiment: POP inhibition constants (Ki) with Tic-Pro-AFC substrate; format: biochemical
T1 sequence (P48147 1-710): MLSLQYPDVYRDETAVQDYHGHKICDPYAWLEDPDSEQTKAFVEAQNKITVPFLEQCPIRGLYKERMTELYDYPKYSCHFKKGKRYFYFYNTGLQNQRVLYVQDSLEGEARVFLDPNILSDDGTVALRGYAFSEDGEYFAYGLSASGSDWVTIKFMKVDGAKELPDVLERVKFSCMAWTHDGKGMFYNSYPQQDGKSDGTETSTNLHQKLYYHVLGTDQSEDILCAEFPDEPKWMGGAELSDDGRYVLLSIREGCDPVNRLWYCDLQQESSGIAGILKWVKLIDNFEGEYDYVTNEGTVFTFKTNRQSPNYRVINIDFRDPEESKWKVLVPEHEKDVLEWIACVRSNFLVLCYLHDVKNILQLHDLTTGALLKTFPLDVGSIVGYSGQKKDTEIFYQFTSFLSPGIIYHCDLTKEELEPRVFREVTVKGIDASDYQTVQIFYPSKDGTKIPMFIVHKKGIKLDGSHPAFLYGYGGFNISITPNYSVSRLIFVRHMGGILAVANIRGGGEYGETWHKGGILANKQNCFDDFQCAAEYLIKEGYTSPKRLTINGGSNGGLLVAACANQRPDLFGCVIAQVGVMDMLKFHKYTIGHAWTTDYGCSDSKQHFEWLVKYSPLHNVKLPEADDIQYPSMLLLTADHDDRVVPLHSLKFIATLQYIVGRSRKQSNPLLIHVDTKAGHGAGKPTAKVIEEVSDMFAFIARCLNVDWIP
Procedure: (§1) For accurate assessment of kinetic parameters, saturating concentrations of substrate were used. For standard curves, dilutions of AFC (7-amino-4-trifluoromethylcoumarin) were prepared in the same assay buffer and corresponding fluorescence was measured.

DPPIV = DPPIV (Homo sapiens, UniProt P27487); experiment: DPPIV inhibition constants (Ki) with Tic-Pro-AFC substrate; format: biochemical
Procedure: as §1

DPPIV, sequence (P27487 whole entry, species assumed): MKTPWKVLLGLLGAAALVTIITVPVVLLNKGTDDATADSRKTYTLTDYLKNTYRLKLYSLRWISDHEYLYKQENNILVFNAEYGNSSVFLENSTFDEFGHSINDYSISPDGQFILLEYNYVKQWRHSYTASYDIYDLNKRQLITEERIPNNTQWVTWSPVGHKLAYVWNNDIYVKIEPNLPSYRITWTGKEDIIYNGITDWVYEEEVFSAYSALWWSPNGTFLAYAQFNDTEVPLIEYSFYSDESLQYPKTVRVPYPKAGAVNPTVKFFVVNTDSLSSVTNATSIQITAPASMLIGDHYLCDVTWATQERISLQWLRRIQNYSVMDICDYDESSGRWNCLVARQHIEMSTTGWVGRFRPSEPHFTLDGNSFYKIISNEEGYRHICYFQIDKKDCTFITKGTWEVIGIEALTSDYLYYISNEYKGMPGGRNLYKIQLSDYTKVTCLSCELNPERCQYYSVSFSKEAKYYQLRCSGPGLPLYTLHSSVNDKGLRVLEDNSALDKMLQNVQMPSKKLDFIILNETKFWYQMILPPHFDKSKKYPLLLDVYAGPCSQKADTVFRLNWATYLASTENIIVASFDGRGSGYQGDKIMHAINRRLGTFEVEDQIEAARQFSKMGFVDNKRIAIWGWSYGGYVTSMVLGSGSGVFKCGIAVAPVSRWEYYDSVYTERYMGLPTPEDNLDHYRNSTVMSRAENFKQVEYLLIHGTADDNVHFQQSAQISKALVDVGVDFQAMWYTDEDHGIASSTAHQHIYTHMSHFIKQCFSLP

Compound: CC(=O)N[C@@H](CCCNC(=N)N)C(=O)NCCOCCOCC(=O)N[C@H](C)C(=O)N1CCC[C@H]1B(O)O [Compound M83, acetyl-Arg-AEEA-(D)Ala-(L)boroPro]
- solubility in aqueous buffers (Aqueous solubility): soluble in aqueous buffers
- Selectivity Ki (POP) / Ki (APCE/FAP) (POP; ratio of Ki values): 1.3
- Ki (POP; substrate Tic-Pro-AFC): 0.0074 µM
- Selectivity Ki (DPPIV) / Ki (APCE-FAP) (DPPIV; ratio of Ki values): 1076
- inhibition of DPPIV (DPPIV; result in words): nor was it inhibited
- Ki (DPPIV; substrate Tic-Pro-AFC): 6.13 µM and 6.14 µM
